Measurements published in ChEMBL document CHEMBL3727348, “3-(aryl or heteroaryl) methyleneindolin-2-one derivatives as inhibitors of cancer stem cell pathway kinases for the treatment of cancer” (2014).
The source made the active and inactive calls. The calls are words filed in the database; no cut-off is given here.

How the values were obtained:
[1] = molecular target: Serine/threonine-protein kinase RIO2 (Homo sapiens) (UniProt Q9BVS4); experiment: Inhibition of N-terminal GST-fused full length human recombinant RIOK2 expressed in baculovirus Sf21 cells assessed as reduction in kinase auto-phosphorylation at 1 uM in presence of ATP incubated for 1 hr by ELISA method
Serine/threonine-protein kinase RIO2 (Homo sapiens), sequence (Q9BVS4 whole entry, looked up, the tested form may be a part): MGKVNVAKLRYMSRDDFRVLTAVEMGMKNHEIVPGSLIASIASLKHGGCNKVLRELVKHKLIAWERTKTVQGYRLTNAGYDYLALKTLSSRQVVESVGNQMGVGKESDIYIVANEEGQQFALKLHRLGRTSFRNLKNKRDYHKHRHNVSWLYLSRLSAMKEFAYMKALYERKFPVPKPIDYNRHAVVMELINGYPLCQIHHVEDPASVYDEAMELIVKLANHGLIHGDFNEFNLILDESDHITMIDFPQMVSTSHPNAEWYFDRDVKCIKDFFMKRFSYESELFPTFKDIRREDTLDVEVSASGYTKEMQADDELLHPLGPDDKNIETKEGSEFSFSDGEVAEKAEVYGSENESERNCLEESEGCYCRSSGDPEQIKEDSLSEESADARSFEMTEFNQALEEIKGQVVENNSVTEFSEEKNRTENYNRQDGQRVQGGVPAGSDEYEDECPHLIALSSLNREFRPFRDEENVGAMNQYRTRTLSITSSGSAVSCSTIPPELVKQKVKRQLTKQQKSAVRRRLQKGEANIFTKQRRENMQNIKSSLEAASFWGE

[2] = molecular target: Serine/threonine-protein kinase RIO2 (Homo sapiens) (UniProt Q9BVS4); experiment: Inhibition of N-terminal GST-fused full length human recombinant RIOK2 expressed in baculovirus Sf21 cells assessed as reduction in kinase auto-phosphorylation at 10 uM in presence of ATP incubated for 1 hr by ELISA method
[3] = molecular target: T1, Ribosomal protein S6 kinase (Homo sapiens) (UniProt P51812+Q9UBS0+O75676+Q15349+O75582+P23443+Q9UK32+Q15418); experiment: Inhibition of RPS6 kinase phosphorylation in cells (unknown origin) incubated for 6 hrs by Western blot based cell based method
FaDu [4] = experiment: Cytotoxic activity against human FADU bulk cells incubated for 72 hrs by Cell-titer-Glo luminescence assay; type: functional, cell-based
A549 [5] = experiment: Cytotoxic activity against human A549 bulk cells incubated for 72 hrs by Cell-titer-Glo luminescence assay; type: functional, cell-based; details: A549, 72 h
ACHN [6] = experiment: Cytotoxic activity against human ACHN bulk cells incubated for 72 hrs by Cell-titer-Glo luminescence assay; type: functional, cell-based
FaDu [7] = experiment: Cytotoxic activity against human FADU cancer stem cells incubated for 72 hrs by Cell-titer-Glo luminescence assay; type: functional, cell-based
A549 [8] = experiment: Cytotoxic activity against human A549 cancer stem cells incubated for 72 hrs by Cell-titer-Glo luminescence assay; type: functional, cell-based; details: A549, 72 h
[9] = molecular target: Mitogen-activated protein kinase; ERK1/ERK2 (Homo sapiens) (UniProt P27361+P28482); experiment: Inhibition of ERK phosphorylation in cells (unknown origin) incubated for 6 hrs by Western blot based cell based method
Mitogen-activated protein kinase; ERK1/ERK2 (Homo sapiens), sequence (P27361 whole entry, looked up): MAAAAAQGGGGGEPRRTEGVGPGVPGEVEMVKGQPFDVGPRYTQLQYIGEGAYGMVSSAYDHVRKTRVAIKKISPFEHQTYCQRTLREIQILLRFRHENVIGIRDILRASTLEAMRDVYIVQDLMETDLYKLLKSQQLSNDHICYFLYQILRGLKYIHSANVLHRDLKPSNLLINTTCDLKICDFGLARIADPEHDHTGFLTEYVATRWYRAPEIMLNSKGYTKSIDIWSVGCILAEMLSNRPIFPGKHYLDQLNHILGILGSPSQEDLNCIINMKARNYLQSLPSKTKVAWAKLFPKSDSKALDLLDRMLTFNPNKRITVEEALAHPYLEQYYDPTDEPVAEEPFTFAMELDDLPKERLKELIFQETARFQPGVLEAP
Mitogen-activated protein kinase; ERK1/ERK2 (Homo sapiens), sequence (P28482 whole entry, looked up): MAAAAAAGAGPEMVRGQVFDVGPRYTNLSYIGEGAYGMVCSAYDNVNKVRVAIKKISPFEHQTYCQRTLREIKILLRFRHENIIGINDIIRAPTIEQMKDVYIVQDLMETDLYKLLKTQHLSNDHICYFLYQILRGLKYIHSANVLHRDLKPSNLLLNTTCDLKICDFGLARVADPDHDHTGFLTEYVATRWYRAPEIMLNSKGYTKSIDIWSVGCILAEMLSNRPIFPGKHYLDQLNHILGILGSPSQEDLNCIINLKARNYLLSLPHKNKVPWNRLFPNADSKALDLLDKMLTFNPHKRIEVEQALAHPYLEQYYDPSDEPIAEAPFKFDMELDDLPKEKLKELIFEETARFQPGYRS

ACHN [10] = experiment: Cytotoxic activity against human ACHN cancer stem cells incubated for 72 hrs by Cell-titer-Glo luminescence assay; type: functional, cell-based
[11] = molecular target: AMP-activated protein kinase, AMPK (Homo sapiens) (UniProt P54646+O43741+P54619+Q9UGJ0+Q9Y478+Q13131+Q9UGI9); experiment: Inhibition of AMPK in human HeLa cells assessed as kinase phosphorylation level at 5 uM incubated for 6 hrs by SDS-PAGE based chemiluminescence assay; type: cell-based; parameters: scale not given: the % may be the effect or the level left
[12] = molecular target: T1, Ribosomal protein S6 kinase (Homo sapiens); experiment: Inhibition of RPS6 kinase in human HeLa cells assessed as p-RPS6 Ser235/236 phosphorylation level at 5 uM incubated for 6 hrs by SDS-PAGE based chemiluminescence assay; type: cell-based; parameters: scale not given: the % may be the effect or the level left
[13] = molecular target: T1, Ribosomal protein S6 kinase (Homo sapiens); experiment: Inhibition of RPS6 kinase in human HeLa cells assessed as p-RPS6 Ser240/244 phosphorylation level at 5 uM incubated for 6 hrs by SDS-PAGE based chemiluminescence assay; type: cell-based; parameters: scale not given: the % may be the effect or the level left

Row | inhibition [1] [%] | inhibition [2] [%] | Compound | further results
1 | 42 | 112 | CCN(CC)CCNC(=O)c1c(C)[nH]c(/C=C2\C(=O)Nc3ccc(-c4cnn(-c5ncccn5)c4)cc32)c1C | –
2 | -2 | 25 | Cc1[nH]c(/C=C2\C(=O)Nc3ccc(-c4cnn(-c5ccccc5)c4)cc32)c(C)c1C(=O)NCCc1ncc[nH]1 | –
3 | 40 | 109 | CCN(CC)CCNC(=O)c1c(C)[nH]c(/C=C2\C(=O)Nc3ccc(-c4cnn(-c5ccncn5)c4)cc32)c1C | –
4 | 18 | 87 | CCN(CC)CCNC(=O)c1c(C)[nH]c(/C=C2\C(=O)Nc3ccc(-c4ccnn4-c4ccc(Cl)c(Cl)c4)cc32)c1C | –
5 | 6 | 107 | Cc1[nH]c(/C=C2\C(=O)Nc3ccc(-c4cnn(-c5ccccc5)c4)cc32)c(C)c1C(=O)NC1(CN2CCCCC2)CC1 | –
6 | 17 | 140 | Cc1[nH]c(/C=C2\C(=O)Nc3ccc(-c4cnn(-c5ccccc5)c4)cc32)c(C)c1C(=O)NC1CCNCC1 | –
7 | – | – | Cc1[nH]c(/C=C2\C(=O)Nc3ccc(-c4csc(-c5ccccc5)n4)cc32)c(C)c1C(=O)NCCO | inhibition [3]: Active
8 | 22 | 134 | Cc1[nH]c(/C=C2\C(=O)Nc3ccc(-c4cnn(-c5ccccc5)c4)cc32)c(C)c1C(=O)N[C@H]1[C@@H]2CNC[C@@H]21 | –
9 | 22 | 130 | Cc1[nH]c(/C=C2\C(=O)Nc3ccc(-c4cnn(-c5ccccc5)c4)cc32)c(C)c1C(=O)N[C@@H]1CCCNC1 | –
10 | 42 | 82 | CCN(CC)CCNC(=O)c1c(C)[nH]c(/C=C2\C(=O)Nc3ccc(-c4cnn(-c5cccnc5)c4)cc32)c1C | –
11 | 55 | 76 | CCN(CC)CCNC(=O)c1c(C)[nH]c(/C=C2\C(=O)Nc3ccc(-c4cnn(-c5ccccc5)c4C)cc32)c1C | IC50 (FaDu [4]): 2.84 µM; IC50 (A549 [5]): 29.2 µM; IC50 (ACHN [6]): 3.54 µM; IC50 (FaDu [7]): 1.31 µM; IC50 (A549 [8]): 4.9 µM
12 | 18 | 111 | CCN(CC)CCNC(=O)c1c(C)[nH]c(/C=C2\C(=O)Nc3ccc(-c4cnn(-c5nccs5)c4)cc32)c1C | –
13 | 29 | 137 | CCN(CC)CCNC(=O)c1c(C)[nH]c(/C=C2\C(=O)Nc3ccc(-c4ccnn4-c4cccc(C)c4)cc32)c1C | –
14 | 9 | 68 | CCN(CC)CCNC(=O)c1c(C)[nH]c(/C=C2\C(=O)Nc3ccc(-c4ccnn4-c4ccc(C(F)(F)F)cc4)cc32)c1C | –
15 | 20 | 96 | CCN(CC)CCCNC(=O)c1c(C)[nH]c(/C=C2\C(=O)Nc3ccc(-c4cnn(-c5ccccc5)c4)cc32)c1C | –
16 | 56 | 116 | CCN(CC)CCNC(=O)c1c(C)[nH]c(/C=C2\C(=O)Nc3ccc(-c4ccnn4-c4ccccc4F)cc32)c1C | –
17 | 47 | 95 | CCN(CC)CCNC(=O)c1c(C)[nH]c(/C=C2\C(=O)Nc3ccc(-c4cnn(-c5cnccn5)c4)cc32)c1C | –
18 | 39 | 104 | CCN(CC)CCNC(=O)c1c(C)[nH]c(/C=C2\C(=O)Nc3ccc(-c4ccnn4-c4ccc(F)cc4)cc32)c1C | –
19 | -6 | 44 | CCN(CC)CCNC(=O)c1c(C)[nH]c(/C=C2\C(=O)Nc3ccc(-c4ccnn4-c4ccncc4)cc32)c1C | –
20 | -7 | 43 | CCOCCCNC(=O)c1c(C)[nH]c(/C=C2\C(=O)Nc3ccc(-c4cnn(-c5ccccc5)c4)cc32)c1C | –
21 | – | – | CCNC(=O)c1c(C)[nH]c(/C=C2\C(=O)Nc3ccc(-c4csc(-c5ccccc5)n4)cc32)c1C | inhibition [9]: Active; inhibition [3]: Active

Row | inhibition [1] [%] | inhibition [2] [%] | Compound | further results
22 | 51 | 98 | CCN(CC)CCNC(=O)c1c(C)[nH]c(/C=C2\C(=O)Nc3ccc(-c4ccnn4-c4cccc(OC)c4)cc32)c1C | –
23 | 45 | 94 | CCN(CC)CCNC(=O)c1c(C)[nH]c(/C=C2\C(=O)Nc3ccc(-c4cnn(-c5ccccc5)c4)cc32)c1C | IC50 (FaDu [4]): 6.25 µM; IC50 (A549 [5]): 5.35 µM; IC50 (ACHN [6]): 2.28 µM; IC50 (FaDu [7]): 0.6 µM; IC50 (A549 [8]): 4.83 µM
24 | 7 | 65 | Cc1[nH]c(/C=C2\C(=O)Nc3ccc(-c4cnn(-c5ccccc5)c4)cc32)c(C)c1C(=O)NCC1(N)CCCC1 | –
25 | 14 | 93 | CCN(CC)CCNC(=O)c1c(C)[nH]c(/C=C2\C(=O)Nc3ccc(-c4ccnn4-c4ccccn4)cc32)c1C | –
26 | 3 | 113 | CCN(CC)CCN(C)C(=O)c1c(C)[nH]c(/C=C2\C(=O)Nc3ccc(-c4cnn(-c5ccccc5)c4)cc32)c1C | –
27 | 32 | 68 | CCN(CC)CCNC(=O)c1c(C)[nH]c(/C=C2\C(=O)Nc3ccc(-c4cnn(C5CCOCC5)c4)cc32)c1C | IC50 (FaDu [4]): 4.22 µM; IC50 (A549 [5]): 16 µM; IC50 (ACHN [6]): 10.4 µM; IC50 (FaDu [7]): 2.57 µM
28 | 53 | 91 | Cc1[nH]c(/C=C2\C(=O)Nc3ccc(-c4cnn(-c5ccccn5)c4)cc32)c(C)c1C(=O)NCCN1CCCC1 | IC50 (FaDu [4]): 2.53 µM; IC50 (A549 [5]): 2.53 µM; IC50 (ACHN [6]): 1.64 µM; IC50 (FaDu [7]): 1.65 µM; IC50 (A549 [8]): 11.7 µM; IC50 (ACHN [10]): 0.22 µM; Activity [11]: 52%; Activity [12]: 82%; Activity [13]: 92%
29 | 4 | 99 | CCN(CC)CCNC(=O)c1c(C)[nH]c(/C=C2\C(=O)Nc3ccc(-c4cnn(-c5ccccc5Cl)c4)cc32)c1C | –
30 | 41 | 99 | CCN(CC)CCNC(=O)c1c(C)[nH]c(/C=C2\C(=O)Nc3ccc(-c4cnn(-c5cscn5)c4)cc32)c1C | –
31 | 55 | 100 | CCN(CC)CCNC(=O)c1c(C)[nH]c(/C=C2\C(=O)Nc3ccc(-c4ccnn4-c4ccccc4)cc32)c1C | IC50 (FaDu [4]): 3.01 µM; IC50 (A549 [5]): 2.94 µM; IC50 (ACHN [6]): 6.57 µM; IC50 (FaDu [7]): 3.46 µM; IC50 (A549 [8]): 5.54 µM; IC50 (ACHN [10]): 1.17 µM
32 | 34 | 106 | CCN(CC)CCNC(=O)c1c(C)[nH]c(/C=C2\C(=O)Nc3ccc(-c4ccnn4-c4ccc(OC)cc4)cc32)c1C | –
33 | 13 | 94 | Cc1[nH]c(/C=C2\C(=O)Nc3ccc(-c4cnn(-c5ccccc5)c4)cc32)c(C)c1C(=O)NC[C@@H]1CCCN1 | –
34 | 1.4 | 122 | Cc1[nH]c(/C=C2\C(=O)Nc3ccc(-c4cnn(-c5ccccc5)c4)cc32)c(C)c1C(=O)N[C@H]1CCCNC1 | –
35 | – | – | CCOC(=O)CCc1ccc(-c2nc(-c3ccc4c(c3)/C(=C/c3[nH]c(C)c(C(=O)NCCN(CC)CC)c3C)C(=O)N4)cs2)cc1 | inhibition [9]: Active; IC50 (FaDu [7]): 2.52 µM
36 | 26 | 71 | CCN(CC)CCNC(=O)c1c(C)[nH]c(/C=C2\C(=O)Nc3ccc(-c4cnn(-c5ccc(S(N)(=O)=O)cc5)c4)cc32)c1C | –
37 | 36 | 86 | CCN(CC)CCNC(=O)c1c(C)[nH]c(/C=C2\C(=O)Nc3ccc(-c4cnn(-c5ccccn5)c4)cc32)c1C | IC50 (FaDu [4]): 0.51 µM; IC50 (A549 [5]): 1.72 µM; IC50 (ACHN [6]): 1.24 µM; IC50 (FaDu [7]): 0.05 µM; IC50 (A549 [8]): 2.53 µM; IC50 (ACHN [10]): 0.13 µM
38 | – | – | Cc1cc(C)c(/C=C2\C(=O)Nc3ccc(-c4ccc(C=O)cc4)cc32)[nH]1 | inhibition [9]: Active; IC50 (FaDu [4]): 26.8 µM; IC50 (A549 [5]): 29.2 µM
39 | 32 | 56 | CCN(CC)CCNC(=O)c1c(C)[nH]c(/C=C2\C(=O)Nc3ccc(-c4ncc(-c5ccccc5)o4)cc32)c1C | IC50 (FaDu [4]): 7.35 µM; IC50 (FaDu [7]): 27.6 µM; IC50 (A549 [8]): 0.35 µM
40 | 9 | 126 | Cc1[nH]c(/C=C2\C(=O)Nc3ccc(-c4cnn(-c5ccccc5)c4)cc32)c(C)c1C(=O)NC[C@H]1CCCN1 | –
41 | – | – | CCN(CC)CCNC(=O)c1c(C)[nH]c(/C=C2\C(=O)Nc3c2cccc3-c2cncnc2)c1C | IC50 (FaDu [4]): 36.3 µM; IC50 (A549 [5]): 21.5 µM; IC50 (ACHN [6]): 16.4 µM; IC50 (FaDu [7]): 6.73 µM; IC50 (A549 [8]): 27.5 µM; IC50 (ACHN [10]): 10.9 µM; Activity [11]: 60%; Activity [12]: 71%; Activity [13]: 72%
